In one assay the test system is Ca^2+ influx in ILC2s. Put plainly: Calcium signaling (Fluo-4) in purified ILC2s. The assay is classed as cell-based, mouse. The following applies: NmU23 added 60 seconds after baseline; small intestine ILC2s. On the procedure: Purified ILC2s from the small intestine were cultured with IL-2 and IL-7 (10 ng/mL) and FBS deprived for 6 hours prior to calcium signaling experiments. ILC2s were stained with Fluo-4 Direct Calcium Assay Kit (Thermo Fisher Scientific) according to manufacturer's protocol. Calcium (Ca^2+) influx, represented by the Fluo-4 AM, was recorded over time on a BD Accuri C6 (BD Biosciences) flow cytometer as previously reported^36. The recombinant mouse NmU23 was added 60 seconds after ILC2 baseline recording. Data was represented by the mean values of Ca^2+ influx kinetics between the ILC2 baseline response and the peak of response after recombinant mouse NmU23 addition.

A further assay relates to Th2. Put plainly: In vitro stimulation of Th2 cells with NmU23, type 2 cytokine gene expression. The assay is classed as cell-based, mouse. The following applies: NmU23 100 ng/mL in vitro (FIG. 9f). The text has this: FIGS. 9a-9i: FIG. 9a, Nmur1 quantitative RT-PCR analysis in the lungs at day 6 post Nippostrongylus brasiliensis (NB)—infection in lung. Eosinophils (Eo); Mast cells (Mast); Macrophages (Mø); Neutrophils (Neu); naive T cells (T); Innate lymphoid cells type 2 (ILC2). FIG. 9b, NMUR1 expression in human adaptive (CD4 T cells) and innate type 2 lymphocytes ILC2 from blood. FIG. 9c, Type 2 cytokine gene expression in human ILC2 and Th2 after in vitro stimulation with the peptide NmU25. FIG. 9d, Nmur1 expression in lung ILC2 before and after infection (at day 6). FIG. 9e, Nmur1 expression in steady state in Common lymphoid progenitor (CLP); Common helper innate lymphoid progenitor (CHILP), Bone marrow ILC2 progenitor (ILC2P) and Eo, Mast, Mø, Neu, Dendritic cells (DC); naive T cells (T); T-helper 2 cells (Th2); memory T cells, B cells (B), Lamina Propria glial cells (G) and neurons (N). n=3-6. FIG. 9f, Type 2 cytokine gene expression in intestinal ILC2 and Th2 after in vitro stimulation with the peptide NmU23 (100 ng/mL). n=3-6. FIG. 9g, Confocal analysis of intestinal lamina propria. Green: neurons (Ret^GFP); Cyan: KLRG1; red: CD3. […]
Total RNA was extracted using RNeasy micro kit (Qiagen) according to the manufacturer's protocol. RNA concentration was determined using Nanodrop Spectrophotometer (Nanodrop Technologies). Quantitative real-time RT-PCR was performed as previously described^5,8. […]

Consider “recombinant mouse Neuromedin U 23 peptide (FKAEYQSPSVGQSKGYFLFRPRN; listed as Mus musculus) [NmU23, NMUR1 agonist neuropeptide, Phoenix pharmaceuticals]”, for which, in the assay on Ca^2+ influx in ILC2s, the “Ca^2+ influx in ILC2s (Fluo-4 AM intensity)” value was “immediate and robust Ca^2+ influx”. The “type 2 cytokine gene expression in adaptive T cell counterparts (Th2)” value with Th2 is recorded as “unperturbed”.

The values above are taken from patent US20190358264A1, “METHODS OF TREATING DISEASES ASSOCIATED WITH ILC2 CELLS” (Limm Therapeutics, SA, priority 2016, published 2019).
